According to patent US20250145633A1, “SUBSTITUTED FURANOPYRIMIDINE COMPOUNDS AS PDE1 INHIBITORS” (Dart NeuroScience, LLC, priority 2017, published 2025):

Target: human PDE1B enzyme (Homo sapiens (Human), UniProt Q01064)
Experiment: IMAP TR-FRET PDE1B enzymatic assay
Type: biochemical
Conditions: negative log of half-maximal molar inhibitory concentration; 200 nM FAM-cAMP; values given as bins
Method: PDE1B inhibition was determined by an IMAP TR-FRET assay. The IMAP TR-FRET PDE assay was optimized for concentration of enzyme, Calmodulin, cAMP or cGMP substrate, DMSO tolerance, and incubation time.
Into each well of a solid white 1536 well plate (Corning) was dispensed 250 pg full-length recombinant NH-terminal GST tagged human PDE1B enzyme (BPS Bioscience Cat #60011, San Diego, CA) in 2.5 μL IMAP BSA reaction buffer (Molecular Devices, Sunnyvale, CA) containing 10 U/ml Calmodulin and 2.5 mM CaCl2) (Sigma Aldrich.) After a brief centrifugation, 30 nL of compound was added by transfer from 1 mM stock in DMSO using a Kalypsys 1536 Pintool. Plates were incubated for 5 minutes at room temperature before dispensing 1.5 μL of 533 nM 5-carboxy fluorescein (FAM)-labeled cAMP (Molecular Devices, Sunnyvale, CA) for a final concentration of 200 nM. After a brief centrifugation, the plates were incubated for 30 minutes at room temperature. The assay was terminated by adding 5 μL IMAP binding reagent/Tb complex (Molecular Devices, Sunnyvale, CA) to each well.
Plates were incubated for 1 hour at room temperature and were read on a Viewlux multimode plate reader (Perkin Elmer). The instrument was set to excite using the DUG11 filter and measure using 490/10 nm and 520/10 nm filters. Ratios of acceptor and donor were then calculated.
For IC50 calculations, the values of % efficacy versus a series of compound concentrations were then plotted using non-linear regression analysis of sigmoidal dose-response curves generated with the equation Y=[B+(T−B)]/[1+10((Log EC50−X)×Hill Slope)], where Y=percent activity, B=minimum percent efficacy, T=maximum percent efficacy, X=logarithm of compound and Hill Slope=slope factor or Hill coefficient. The IC50 value was determined by the concentration causing a half-maximal percent efficacy.

Question: How did the “PDE1b (pIC50)” value turn out when `Cc1oc2ncnc(NC3(C)CC3)c2c1C(=O)N1CCc2cc(OCF)ccc2C1` [Example 765, 5-[6-(Fluoromethoxy)-1,2,3,4-tetrahydroisoquinoline-2-carbonyl]-6-methyl-N-(1-methylcyclopropyl)furo[2,3-d]pyrimidin-4-amine] was run?
Answer: >8

Question: `COc1ccc(CNC(=O)c2c(C)oc3ncnc(NC4(C)CC4)c23)cc1F` [Example 483, N-[(3-Fluoro-4-methoxyphenyl)methyl]-6-methyl-4-[(1-methylcyclopropyl)amino]furo[2,3-d]pyrimidine-5-carboxamide] was tested. Which “PDE1b (pIC50)” value did it give?
Answer: >8

Question: Which “PDE1b (pIC50)” value does the source give for `Cc1oc2ncnc(NC3(C)CC3)c2c1C(=O)NCc1cc(C#N)ccc1F` [Example 533, N-[(5-Cyano-2-fluorophenyl)methyl]-6-methyl-4-[(1-methylcyclopropyl)amino]furo[2,3-d]pyrimidine-5-carboxamide] here?
Answer: >8

Question: With `Cc1cc(F)nc(C2CCN(C(=O)c3c(C)oc4ncnc(NC5(C)CC5)c34)C2)c1` (stereo not shown) [Example 798, 5-[3-(6-Fluoro-4-methylpyridin-2-yl)pyrrolidine-1-carbonyl]-6-methyl-N-(1-methylcyclopropyl)furo[2,3-d]pyrimidin-4-amine] as the compound, how does the “PDE1b (pIC50)” value read?
Answer: >8

Question: For `Cc1oc2ncnc(NC3(C)CC3)c2c1C(=O)N1CCCC(c2ccc(F)cc2)CC1` (stereo not shown) [Example 296, 5-[4-(4-Fluorophenyl)azepane-1-carbonyl]-6-methyl-N-(1-methylcyclopropyl)furo[2,3-d]pyrimidin-4-amine], which “PDE1b (pIC50)” value is on record?
Answer: >8

Same assay, conditions: negative log of half-maximal molar inhibitory concentration; 200 nM FAM-cAMP; values given as bins; read-out: PDE1b (pIC50) (converted)

Question: Which IC50 does the source give for `Cc1oc2ncnc(NC3(C)CC3)c2c1C(=O)NCc1ncc(C(C)(C)C)o1` [Example 691, N-[(5-tert-Butyl-1,3-oxazol-2-yl)methyl]-6-methyl-4-[(1-methylcyclopropyl)amino]furo[2,3-d]pyrimidine-5-carboxamide] here?
Answer: 10 to 100 nM

Question: `Cc1oc2ncnc(NC3(C)CC3)c2c1C(=O)NC(C)C1CC1` (stereo not shown) [Example 400, N-(1-Cyclopropylethyl)-6-methyl-4-[(1-methylcyclopropyl)amino]furo[2,3-d]pyrimidine-5-carboxamide] was tested. Which IC50 did it give?
Answer: 10 to 100 nM

Question: How did the IC50 turn out when `COc1nc(C)ncc1CNC(=O)c1c(C)oc2ncnc(NC3(C)CC3)c12` [Example 676, N-[(4-Methoxy-2-methylpyrimidin-5-yl)methyl]-6-methyl-4-[(1-methylcyclopropyl)amino]furo[2,3-d]pyrimidine-5-carboxamide] was run?
Answer: 10 to 100 nM

Question: With `Cc1nc(NC(=O)c2c(C)oc3ncnc(NC4(C)CC4)c23)sc1C` [Example 433, N-(Dimethyl-1,3-thiazol-2-yl)-6-methyl-4-[(1-methylcyclopropyl)amino]furo[2,3-d]pyrimidine-5-carboxamide] as the compound, how does the IC50 read?
Answer: 10 to 100 nM

Question: `Cc1oc2ncnc(NC3(C)CC3)c2c1C(=O)NC1(CF)CC1` [Example 3, N-(1-(fluoromethyl)cyclopropyl)-6-methyl-4-((1-methylcyclopropyl)amino)furo[2,3-d]pyrimidine-5-carboxamide] was tested. Which IC50 did it give?
Answer: 10 to 100 nM

Question: Which IC50 does the source give for `Cc1oc2ncnc(NC3(C)CC3)c2c1C(=O)NCc1ccnc(F)c1` [Example 164, N-[(2-Fluoropyridin-4-yl)methyl]-6-methyl-4-[(1-methylcyclopropyl)amino]furo[2,3-d]pyrimidine-5-carboxamide] here?
Answer: 10 to 100 nM

Question: How did the IC50 turn out when `Cc1oc2ncnc(NC3(C)CC3)c2c1C(=O)N1CCN(c2ccc(S(C)(=O)=O)cc2F)CC1` [Example 359, 5-[4-(2-Fluoro-4-methanesulfonylphenyl)piperazine-1-carbonyl]-6-methyl-N-(1-methylcyclopropyl)furo[2,3-d]pyrimidin-4-amine] was run?
Answer: 10 to 100 nM

Question: With `Cc1oc2ncnc(NC3(C)CC3)c2c1C(=O)N(C)c1cnn(C(C)C)c1` [Example 470, N,6-Dimethyl-4-[(1-methylcyclopropyl)amino]-N-[1-(propan-2-yl)-1H-pyrazol-4-yl]furo[2,3-d]pyrimidine-5-carboxamide] as the compound, how does the IC50 read?
Answer: 100 to 1000 nM

Question: With `Cc1oc2ncnc(NC3(C)CC3)c2c1C(=O)NCc1ccc(F)cc1` [Example 48, N-[(4-Fluorophenyl)methyl]-6-methyl-4-[(1-methylcyclopropyl)amino]furo[2,3-d]pyrimidine-5-carboxamide] as the compound, how does the IC50 read?
Answer: 10 to 100 nM

Question: With `Cc1ccc2c(n1)CCN(C(=O)c1c(C)oc3ncnc(NC4(C)CC4)c13)C2` [Example 284, 6-Methyl-5-(2-methyl-5,6,7,8-tetrahydro-1,6-naphthyridine-6-carbonyl)-N-(1-methylcyclopropyl)furo[2,3-d]pyrimidin-4-amine] as the compound, how does the IC50 read?
Answer: 10 to 100 nM

Question: Which IC50 does the source give for `Cc1oc2ncnc(NC3(C)CC3)c2c1C(=O)N(C)c1cnn(C)c1` [Example 469, N,6-Dimethyl-N-(1-methyl-1H-pyrazol-4-yl)-4-[(1-methylcyclopropyl)amino]furo[2,3-d]pyrimidine-5-carboxamide] here?
Answer: 100 to 1000 nM

Question: `Cc1oc2ncnc(NC3(C)CC3)c2c1C(=O)N1CCN(c2ccc(F)c(F)c2)C(=O)C1` [Example 64, 1-(3,4-Difluorophenyl)-4-{6-methyl-4-[(1-methylcyclopropyl)amino]furo[2,3-d]pyrimidine-5-carbonyl}piperazin-2-one] was tested. Which IC50 did it give?
Answer: 10 to 100 nM

Question: For `COc1ccc(CNC(=O)c2c(C)oc3ncnc(NC4(C)CC4)c23)c(C)c1` [Example 524, N-[(4-Methoxy-2-methylphenyl)methyl]-6-methyl-4-[(1-methylcyclopropyl)amino]furo[2,3-d]pyrimidine-5-carboxamide], which IC50 is on record?
Answer: 10 to 100 nM

Question: `Cc1oc2ncnc(NC3(C)CC3)c2c1C(=O)NC1CC1` [Example 124, N-Cyclopropyl-6-methyl-4-[(1-methylcyclopropyl)amino]furo[2,3-d]pyrimidine-5-carboxamide] was tested. Which IC50 did it give?
Answer: 10 to 100 nM

Question: For `Cc1oc2ncnc(NC3(C)CC3)c2c1C(=O)NCc1ccsc1` [Example 191, 6-Methyl-4-[(1-methylcyclopropyl)amino]-N-(thiophen-3-ylmethyl)furo[2,3-d]pyrimidine-5-carboxamide], which IC50 is on record?
Answer: 10 to 100 nM

Question: How did the IC50 turn out when `Cc1oc2ncnc(NC3(C)CC3)c2c1C(=O)N(C)Cc1cccc(F)c1` [Example 250, N-[(3-Fluorophenyl)methyl]-N,6-dimethyl-4-[(1-methylcyclopropyl)amino]furo[2,3-d]pyrimidine-5-carboxamide] was run?
Answer: 10 to 100 nM

Question: How did the IC50 turn out when `Cc1oc2ncnc(NC3(C)CC3)c2c1C(=O)N1CCc2ccc(O)cc2C1` [Example 332, 2-{6-Methyl-4-[(1-methylcyclopropyl)amino]furo[2,3-d]pyrimidine-5-carbonyl}-1,2,3,4-tetrahydroisoquinolin-7-ol] was run?
Answer: 10 to 100 nM

Question: With `Cc1oc2ncnc(NC3(C)CC3)c2c1C(=O)NCc1ccnc(Cl)n1` [Example 677, N-[(2-Chloropyrimidin-4-yl)methyl]-6-methyl-4-[(1-methylcyclopropyl)amino]furo[2,3-d]pyrimidine-5-carboxamide] as the compound, how does the IC50 read?
Answer: 10 to 100 nM

Question: How did the IC50 turn out when `COc1ncnc2c1CN(C(=O)c1c(C)oc3ncnc(NC4(C)CC4)c13)C2` [Example 622, 5-{4-Methoxy-5H,6H,7H-pyrrolo[3,4-d]pyrimidine-6-carbonyl}-6-methyl-N-(1-methylcyclopropyl)furo[2,3-d]pyrimidin-4-amine] was run?
Answer: 100 to 1000 nM

Question: For `COCCNC(=O)c1c(C)oc2ncnc(NC3(C)CC3)c12` [Example 95, N-(2-Methoxyethyl)-6-methyl-4-[(1-methylcyclopropyl)amino]furo[2,3-d]pyrimidine-5-carboxamide], which IC50 is on record?
Answer: 100 to 1000 nM

Question: `Cc1oc2ncnc(NC3(C)CC3)c2c1C(=O)NCC1(F)COC1` [Example 94, N-[(3-Fluorooxetan-3-yl)methyl]-6-methyl-4-[(1-methylcyclopropyl)amino]furo[2,3-d]pyrimidine-5-carboxamide] was tested. Which IC50 did it give?
Answer: 100 to 1000 nM

Question: Which IC50 does the source give for `Cc1oc2ncnc(NC3(C)CC3)c2c1C(=O)NC1(C#N)CCC1` [Example 91, N-(1-Cyanocyclobutyl)-6-methyl-4-[(1-methylcyclopropyl)amino]furo[2,3-d]pyrimidine-5-carboxamide] here?
Answer: 10 to 100 nM

Question: With `Cc1oc2ncnc(NC3(C)CC3)c2c1C(=O)NC(C)c1ccncn1` (stereo not shown) [Example 317, 6-Methyl-4-[(1-methylcyclopropyl)amino]-N-[1-(pyrimidin-4-yl)ethyl]furo[2,3-d]pyrimidine-5-carboxamide] as the compound, how does the IC50 read?
Answer: 10 to 100 nM

Question: Which IC50 does the source give for `COc1nc(C)nc2c1CN(C(=O)c1c(C)oc3ncnc(NC4(C)CC4)c13)CC2` [Example 712, 5-{4-Methoxy-2-methyl-5H,6H,7H,8H-pyrido[4,3-d]pyrimidine-6-carbonyl}-6-methyl-N-(1-methylcyclopropyl)furo[2,3-d]pyrimidin-4-amine] here?
Answer: 10 to 100 nM

Question: `Cc1oc2ncnc(NC3(C)CC3)c2c1C(=O)NCCO` [Example 134, N-(2-Hydroxyethyl)-6-methyl-4-[(1-methylcyclopropyl)amino]furo[2,3-d]pyrimidine-5-carboxamide] was tested. Which IC50 did it give?
Answer: 100 to 1000 nM

Question: With `Cc1oc2ncnc(NC3(C)CC3)c2c1C(=O)NCCc1nc2cc(F)ccc2n1C` [Example 734, N-[2-(5-Fluoro-1-methyl-1H-1,3-benzodiazol-2-yl)ethyl]-6-methyl-4-[(1-methylcyclopropyl)amino]furo[2,3-d]pyrimidine-5-carboxamide] as the compound, how does the IC50 read?
Answer: 10 to 100 nM
